ChEMBL document CHEMBL4017463, “Practical application of 3-substituted-2,6-difluoropyridines in drug discovery: Facile synthesis of novel protein kinase C theta inhibitors” (Bioorg Med Chem Lett, 2017)

Molecular target: Protein kinase C theta type (Homo sapiens, UniProt Q04759)
Test: Inhibition of N-terminal FLAG-tagged PKCtheta (unknown origin) expressed in baculovirus expression system using fluorescein-PKC as substrate preincubated for 5 mins followed by substrate addition measured after 60 mins in presence of ATP by Lathascreen TR-FRET assay

Sequence of Protein kinase C theta type (Q04759 whole entry): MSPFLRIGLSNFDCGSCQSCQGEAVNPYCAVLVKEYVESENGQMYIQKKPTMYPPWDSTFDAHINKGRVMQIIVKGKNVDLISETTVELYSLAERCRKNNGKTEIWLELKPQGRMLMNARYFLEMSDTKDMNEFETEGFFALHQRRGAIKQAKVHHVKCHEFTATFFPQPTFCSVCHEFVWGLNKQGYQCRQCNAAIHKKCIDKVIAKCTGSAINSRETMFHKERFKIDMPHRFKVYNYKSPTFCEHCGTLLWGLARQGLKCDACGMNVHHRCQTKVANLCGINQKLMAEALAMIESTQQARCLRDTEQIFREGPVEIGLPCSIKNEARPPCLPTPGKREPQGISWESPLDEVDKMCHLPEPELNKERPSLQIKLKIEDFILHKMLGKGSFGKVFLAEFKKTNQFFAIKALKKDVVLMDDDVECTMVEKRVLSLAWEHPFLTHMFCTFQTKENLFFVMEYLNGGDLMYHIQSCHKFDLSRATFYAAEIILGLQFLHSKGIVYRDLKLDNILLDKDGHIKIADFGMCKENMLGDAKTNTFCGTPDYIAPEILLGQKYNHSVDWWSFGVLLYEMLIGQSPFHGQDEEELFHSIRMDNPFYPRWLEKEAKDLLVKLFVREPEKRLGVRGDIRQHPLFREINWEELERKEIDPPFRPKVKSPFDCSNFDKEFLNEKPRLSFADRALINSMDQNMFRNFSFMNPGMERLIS

O=c1[nH]c2ncccc2n1-c1nc(N2CCCNCC2)ccc1F
IC50: 100 nM

O=c1[nH]c2ncccc2n1-c1nc(N2CCCNCC2)ccc1Cl
IC50: 18 nM

CCOc1ccnc2[nH]c(=O)n(-c3nc(N4CCCNCC4)ccc3Cl)c12
IC50: 0.086 nM

O=c1[nH]c2ncccc2n1-c1nc(N2CCCC(C(O)C3CC3)C2)ccc1F (stereo unspecified)
IC50: > 1000 nM

CN1CCCCOc2ccnc3[nH]c(=O)n(c23)-c2nc1ccc2Cl
IC50: 0.87 nM

CN1CCCOc2ccnc3[nH]c(=O)n(c23)-c2nc1ccc2Cl
IC50: 6.7 nM

O=c1[nH]c2nccc3c2n1-c1nc(ccc1Cl)OCCCCO3
IC50: 14 nM

CC(C)CC1CCCN1c1ccc(F)c(-n2c(=O)[nH]c3ncccc32)n1 (racemic)
IC50: 250 nM

CC(C)(C)OC(=O)N1CCN(c2ccc([N+](=O)[O-])c(-n3c(=O)[nH]c4ncccc43)n2)C(c2ccccc2)C1 (racemic)
IC50: 0.18 nM

N#Cc1ccc(N2CCNCC2c2ccccc2)nc1-n1c(=O)[nH]c2ncccc21 (racemic)
IC50: 6.3 nM

COc1ccnc2[nH]c(=O)n(-c3nc(N4CCNC(c5ccccc5)C4)ccc3Cl)c12 (racemic)
IC50: 33 nM
